In ChEMBL document CHEMBL5126517, “Structure-Activity Relationship in the Leucettine Family of Kinase Inhibitors” (J Med Chem, 2022):

How the values were obtained:
[1] = Neurotoxicity against mouse HT-22 cells assessed as cell survival treated for 24 hrs by MTS assay; assay type: toxicity, cell-based
[2] = biological target: Glycogen synthase kinase-3 (Sus scrofa, UniProt B2LUN4+I6LNT8); test: Inhibition of porcine brain GSK-3alpha/beta using YRRAAVPPSPSLSRHSSPHQpSEDEEE as substrate incubated for 30 mins in presence of ATP by scintillation counting method; assay type: tissue-based
[3] = biological target: Dual specificity protein kinase CLK2 (Mus musculus, UniProt O35491); test: Inhibition of mouse recombinant GST-fused CLK2 expressed in Escherichia coli using GRSRSRSRSRSR peptide as substrate incubated for 30 mins in presence of ATP by scintillation counting method
Chain of Dual specificity protein kinase CLK2 (O35491 whole entry, the tested form may be a part): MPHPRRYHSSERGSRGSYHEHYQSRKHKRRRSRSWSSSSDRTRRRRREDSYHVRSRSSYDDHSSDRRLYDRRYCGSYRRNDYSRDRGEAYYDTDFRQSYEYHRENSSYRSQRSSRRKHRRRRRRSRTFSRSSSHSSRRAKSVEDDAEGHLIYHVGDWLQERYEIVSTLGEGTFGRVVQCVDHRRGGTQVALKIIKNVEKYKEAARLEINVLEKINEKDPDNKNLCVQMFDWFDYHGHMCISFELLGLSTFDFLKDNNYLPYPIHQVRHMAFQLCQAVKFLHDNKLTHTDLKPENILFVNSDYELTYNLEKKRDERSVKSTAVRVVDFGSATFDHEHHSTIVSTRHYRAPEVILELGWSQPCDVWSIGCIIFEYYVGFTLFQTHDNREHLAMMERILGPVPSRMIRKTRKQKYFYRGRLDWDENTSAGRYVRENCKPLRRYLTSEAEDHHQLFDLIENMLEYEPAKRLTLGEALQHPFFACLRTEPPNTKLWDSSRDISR

U2OS = test: Induction of PI3K/mTor-dependent autophagy in human U2OS cells assessed as number of LC3 foci per cell at 10 uM measured after 4 hrs; assay type: cell-based; conditions: filed as activator
[4] = biological target: Dual specificity protein kinase CLK3 (Mus musculus, UniProt O35492); test: Inhibition of GST-fused mouse recombinant CLK3 expressed in Escherichia coli using GRSRSRSRSRSR peptide as substrate incubated for 30 mins in presence of ATP by scintillation counting method
Chain of Dual specificity protein kinase CLK3 (O35492 whole entry, the tested form may be a part): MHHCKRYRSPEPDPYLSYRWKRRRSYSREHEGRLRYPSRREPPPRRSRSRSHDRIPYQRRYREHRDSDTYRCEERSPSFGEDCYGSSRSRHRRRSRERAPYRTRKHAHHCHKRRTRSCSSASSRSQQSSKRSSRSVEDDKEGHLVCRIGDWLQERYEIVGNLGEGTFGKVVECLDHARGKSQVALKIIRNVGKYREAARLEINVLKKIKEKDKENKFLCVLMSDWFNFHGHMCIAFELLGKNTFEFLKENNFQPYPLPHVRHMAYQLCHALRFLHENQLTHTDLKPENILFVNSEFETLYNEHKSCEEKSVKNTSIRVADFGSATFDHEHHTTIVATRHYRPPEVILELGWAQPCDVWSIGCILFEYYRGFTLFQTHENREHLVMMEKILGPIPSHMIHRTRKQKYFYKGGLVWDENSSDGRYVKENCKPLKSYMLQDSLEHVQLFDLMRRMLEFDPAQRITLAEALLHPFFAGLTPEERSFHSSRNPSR

Casein kinase 2 = Casein kinase 2 (Homo sapiens, UniProt P67870+P68400+P19784+Q8NEV1); test: Inhibition of human recombinant CK2 using RRRDDDSDDD peptide as substrate incubated for 30 mins in presence of ATP by scintillation counting method; assay type: protein assay
[5] = biological target: Dual specificity tyrosine-phosphorylation-regulated kinase 1B (Homo sapiens, UniProt Q9Y463)
Chain of Dual specificity tyrosine-phosphorylation-regulated kinase 1B (Q9Y463 whole entry, the tested form may be a part): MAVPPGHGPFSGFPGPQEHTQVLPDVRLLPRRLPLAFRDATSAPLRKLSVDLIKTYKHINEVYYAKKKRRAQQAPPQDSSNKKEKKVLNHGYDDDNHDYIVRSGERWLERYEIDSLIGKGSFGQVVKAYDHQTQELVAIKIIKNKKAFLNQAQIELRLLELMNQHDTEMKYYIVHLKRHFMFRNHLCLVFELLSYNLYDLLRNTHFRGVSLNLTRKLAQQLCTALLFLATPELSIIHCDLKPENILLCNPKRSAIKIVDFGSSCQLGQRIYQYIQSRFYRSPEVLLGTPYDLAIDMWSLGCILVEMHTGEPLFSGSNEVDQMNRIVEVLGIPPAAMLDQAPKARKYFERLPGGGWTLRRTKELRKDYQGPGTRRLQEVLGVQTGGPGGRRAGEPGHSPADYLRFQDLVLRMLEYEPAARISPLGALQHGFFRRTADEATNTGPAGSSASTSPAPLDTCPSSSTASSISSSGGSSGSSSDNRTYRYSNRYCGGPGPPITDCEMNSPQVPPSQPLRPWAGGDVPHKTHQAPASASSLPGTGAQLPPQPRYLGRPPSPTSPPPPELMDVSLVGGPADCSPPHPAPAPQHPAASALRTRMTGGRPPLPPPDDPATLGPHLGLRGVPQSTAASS

[6] = biological target: Dual specificity protein kinase CLK1 (Mus musculus, UniProt P22518); test: Inhibition of GST-fused mouse recombinant CLK1 expressed in Escherichia coli using GRSRSRSRSRSR peptide as substrate incubated for 30 mins in presence of ATP by scintillation counting method
Chain of Dual specificity protein kinase CLK1 (P22518 whole entry, the tested form may be a part): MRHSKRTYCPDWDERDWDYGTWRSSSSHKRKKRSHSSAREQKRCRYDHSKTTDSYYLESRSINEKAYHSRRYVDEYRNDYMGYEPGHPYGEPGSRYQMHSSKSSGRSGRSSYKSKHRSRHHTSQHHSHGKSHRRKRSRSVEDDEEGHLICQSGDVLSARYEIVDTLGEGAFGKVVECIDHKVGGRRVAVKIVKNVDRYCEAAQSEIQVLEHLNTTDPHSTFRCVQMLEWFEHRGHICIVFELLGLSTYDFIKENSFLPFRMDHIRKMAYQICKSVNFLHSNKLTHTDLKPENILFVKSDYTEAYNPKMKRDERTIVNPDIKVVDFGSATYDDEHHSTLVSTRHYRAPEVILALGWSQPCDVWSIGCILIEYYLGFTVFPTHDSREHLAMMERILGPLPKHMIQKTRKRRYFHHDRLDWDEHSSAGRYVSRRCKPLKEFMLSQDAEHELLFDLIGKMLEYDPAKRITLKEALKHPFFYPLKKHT

Cannabinoid receptor 1 = Cannabinoid receptor 1 (Homo sapiens, UniProt P21554); test: Antagonist activity at CP-55940-activated CB1 receptor (unknown origin) at 10 uM by beta-arrestin assay relative to control; assay type: functional; set-up: scale not given: the % may be the effect or the level left
Chain of Cannabinoid receptor 1 (P21554 whole entry): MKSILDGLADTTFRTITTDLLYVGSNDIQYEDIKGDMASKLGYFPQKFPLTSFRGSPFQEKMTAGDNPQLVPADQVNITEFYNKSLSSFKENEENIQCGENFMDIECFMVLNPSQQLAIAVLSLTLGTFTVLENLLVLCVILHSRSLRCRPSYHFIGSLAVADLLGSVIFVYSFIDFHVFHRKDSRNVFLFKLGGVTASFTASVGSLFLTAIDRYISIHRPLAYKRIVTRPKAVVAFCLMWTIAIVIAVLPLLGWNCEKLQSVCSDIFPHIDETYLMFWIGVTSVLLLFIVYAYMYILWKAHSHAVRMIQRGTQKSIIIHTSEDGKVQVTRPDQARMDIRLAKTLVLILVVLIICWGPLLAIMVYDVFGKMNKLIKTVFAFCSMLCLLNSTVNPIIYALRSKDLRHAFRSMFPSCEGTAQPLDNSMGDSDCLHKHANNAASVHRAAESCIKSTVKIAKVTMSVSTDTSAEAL

[7] = biological target: Serine/threonine-protein kinase pim-1 (Homo sapiens, UniProt P11309); test: Inhibition of human recombinant Pim1 expressed in Escherichia coli using histone H1 as substrate incubated for 30 mins in presence of ATP by scintillation counting method
Chain of Serine/threonine-protein kinase pim-1 (P11309 whole entry, the tested form may be a part): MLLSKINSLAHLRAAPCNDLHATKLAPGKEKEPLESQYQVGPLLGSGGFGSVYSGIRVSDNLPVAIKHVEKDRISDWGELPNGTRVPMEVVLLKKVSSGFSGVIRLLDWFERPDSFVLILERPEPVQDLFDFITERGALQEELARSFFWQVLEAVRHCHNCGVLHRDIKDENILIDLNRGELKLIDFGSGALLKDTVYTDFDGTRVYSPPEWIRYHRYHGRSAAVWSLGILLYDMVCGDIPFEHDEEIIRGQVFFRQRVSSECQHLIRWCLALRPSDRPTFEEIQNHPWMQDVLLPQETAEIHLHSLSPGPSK

[8] = biological target: T1, Dual specificity tyrosine-phosphorylation-regulated kinase 2 (Homo sapiens, UniProt Q92630); test: Inhibition of GST-fused human recombinant DYRK2 expressed in Escherichia coli using GRSRSRSRSRSR peptide as substrate incubated for 30 mins in presence of ATP by scintillation counting method
T1 sequence (Q92630 whole entry): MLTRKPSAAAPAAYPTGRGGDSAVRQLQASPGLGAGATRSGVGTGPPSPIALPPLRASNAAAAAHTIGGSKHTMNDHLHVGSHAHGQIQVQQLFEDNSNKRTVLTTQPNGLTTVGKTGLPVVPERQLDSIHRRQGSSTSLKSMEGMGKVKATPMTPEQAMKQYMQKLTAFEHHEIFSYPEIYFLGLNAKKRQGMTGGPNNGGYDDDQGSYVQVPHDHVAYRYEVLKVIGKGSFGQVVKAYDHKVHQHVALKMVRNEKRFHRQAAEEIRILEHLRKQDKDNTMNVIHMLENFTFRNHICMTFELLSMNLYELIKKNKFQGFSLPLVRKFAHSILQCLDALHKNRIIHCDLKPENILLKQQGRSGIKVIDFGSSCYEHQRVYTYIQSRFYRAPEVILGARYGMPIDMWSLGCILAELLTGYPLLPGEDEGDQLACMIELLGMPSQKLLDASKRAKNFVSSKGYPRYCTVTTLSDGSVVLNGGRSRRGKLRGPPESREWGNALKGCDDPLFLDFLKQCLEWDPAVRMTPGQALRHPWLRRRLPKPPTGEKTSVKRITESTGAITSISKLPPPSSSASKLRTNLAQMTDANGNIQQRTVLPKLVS

HT-22 [9] = test: Neuroprotective activity against glutamate-induced cell death in mouse HT-22 cells treated for 24 hrs by MTS assay; assay type: functional, cell-based; conditions: HT-22, 24 h
[10] = biological target: Dual specificity protein kinase CLK4 (Mus musculus, UniProt O35493); test: Inhibition of GST-fused mouse recombinant CLK4 expressed in Escherichia coli using GRSRSRSRSRSR peptide as substrate incubated for 30 mins in presence of ATP by scintillation counting method
Chain of Dual specificity protein kinase CLK4 (O35493 whole entry, the tested form may be a part): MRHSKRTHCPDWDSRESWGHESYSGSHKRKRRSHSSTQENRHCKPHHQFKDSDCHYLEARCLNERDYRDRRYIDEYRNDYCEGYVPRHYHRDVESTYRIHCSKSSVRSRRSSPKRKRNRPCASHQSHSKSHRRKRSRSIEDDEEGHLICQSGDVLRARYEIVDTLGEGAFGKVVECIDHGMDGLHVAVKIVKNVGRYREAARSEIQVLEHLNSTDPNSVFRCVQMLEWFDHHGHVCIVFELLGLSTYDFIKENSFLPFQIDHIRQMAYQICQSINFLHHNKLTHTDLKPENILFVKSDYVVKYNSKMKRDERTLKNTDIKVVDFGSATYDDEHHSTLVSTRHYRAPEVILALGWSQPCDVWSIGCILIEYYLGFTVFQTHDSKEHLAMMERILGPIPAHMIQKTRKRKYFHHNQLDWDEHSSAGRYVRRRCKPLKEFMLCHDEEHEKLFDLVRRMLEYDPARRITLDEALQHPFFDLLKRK

[11] = biological target: T2, Dual specificity tyrosine-phosphorylation-regulated kinase 3 (Homo sapiens, UniProt O43781); test: Inhibition of GST-fused human recombinant DYRK3 expressed in Escherichia coli using GRSRSRSRSRSR peptide as substrate incubated for 30 mins in presence of ATP by scintillation counting method
T2 sequence (O43781 whole entry): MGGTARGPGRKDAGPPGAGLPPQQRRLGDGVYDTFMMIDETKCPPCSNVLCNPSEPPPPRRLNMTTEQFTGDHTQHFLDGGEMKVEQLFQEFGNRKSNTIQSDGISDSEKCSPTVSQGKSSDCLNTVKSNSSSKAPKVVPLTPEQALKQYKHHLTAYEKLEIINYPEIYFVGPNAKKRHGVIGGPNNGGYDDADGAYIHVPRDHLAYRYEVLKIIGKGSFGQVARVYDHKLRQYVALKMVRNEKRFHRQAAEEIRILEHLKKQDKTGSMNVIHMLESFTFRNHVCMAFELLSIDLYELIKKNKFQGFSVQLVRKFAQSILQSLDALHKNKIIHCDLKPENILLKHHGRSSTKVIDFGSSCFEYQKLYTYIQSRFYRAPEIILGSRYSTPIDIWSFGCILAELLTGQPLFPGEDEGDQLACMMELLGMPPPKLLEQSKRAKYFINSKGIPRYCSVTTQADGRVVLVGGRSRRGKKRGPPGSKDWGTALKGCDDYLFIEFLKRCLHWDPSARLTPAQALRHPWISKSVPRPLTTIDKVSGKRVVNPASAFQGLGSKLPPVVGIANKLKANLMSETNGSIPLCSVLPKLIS

[12] = biological target: Dual specificity tyrosine-phosphorylation-regulated kinase 1A (Homo sapiens, UniProt Q13627); test: Inhibition of GST-fused human recombinant DYRK1A expressed in Escherichia coli using GRSRSRSRSRSR peptide as substrate incubated for 30 mins in presence of ATP by scintillation counting method
HT-22 [13] = test: Modulation of CLK1 pre-mRNA splicing in mouse HT-22 cells assessed as inclusion of CLK1 exon 4 by measuring change in threshold cycle at 10 uM measured after 4 hrs by real time PCR analysis; assay type: cell-based; conditions: filed as modulator
[14] = Neurotoxicity against mouse HT-22 cells assessed as cell survival at 20 uM treated for 24 hrs by MTS assay; assay type: toxicity, cell-based; conditions: ht-22, 24 h

Q: Which IC50 at 24 h [1] does the source give for `CN1CCN(c2ccc(NC3=N/C(=C\C4=COc5ccccc5O4)C(=O)N3)cc2)CC1` here?
A: > 20000 nM

Q: What about the IC50 [2] of the same compound?
A: 120 nM

Q: What about the IC50 [3] of the same compound?
A: 67 nM

Q: What about the Activity (U2OS) of the same compound?
A: 22

Q: What about the IC50 [4] of the same compound?
A: 1100 nM

Q: And the IC50 (Casein kinase 2)?
A: 450 nM

Q: What about the IC50 [5] of the same compound?
A: 20 nM

Q: What about the IC50 [6] of the same compound?
A: 17 nM

Q: And the Activity (Cannabinoid receptor 1)?
A: -1.4%

Q: And the IC50 [7]?
A: 510 nM

Q: What about the IC50 [8] of the same compound?
A: 8 nM

Q: And the EC50 (HT-22 [9])?
A: 12000 nM

Q: And the IC50 [10]?
A: 19 nM

Q: What about the IC50 [11] of the same compound?
A: 14 nM

Q: And the IC50 [12]?
A: 7 nM

Q: For `CCCNC1=N/C(=C\c2ccc3c(c2)OCO3)C(=O)N1C`, which IC50 [2] is on record?
A: 1400 nM

Q: And the IC50 [3]?
A: 560 nM

Q: And the Activity (U2OS)?
A: 6.8

Q: What about the IC50 [4] of the same compound?
A: 2500 nM

Q: And the IC50 (Casein kinase 2)?
A: > 10000 nM

Q: And the IC50 [5]?
A: 550 nM

Q: And the deltaCT (HT-22 [13])?
A: 3.72

Q: And the IC50 [6]?
A: 110 nM

Q: What about the Activity (Cannabinoid receptor 1) of the same compound?
A: -15.8%

Q: And the IC50 [7]?
A: 3200 nM

Q: And the Activity [14]?
A: Non-Toxic

Q: And the IC50 [8]?
A: 95 nM

Q: And the EC50 (HT-22 [9])?
A: > 20000 nM

Q: What about the IC50 [10] of the same compound?
A: 120 nM

Q: What about the IC50 [11] of the same compound?
A: 1200 nM

Q: What about the IC50 [12] of the same compound?
A: 460 nM

Q: With `COc1cccc(/C=C2\N=C(Nc3ccccc3)NC2=O)c1` as the compound, how does the EC50 at 24 h [1] read?
A: > 20000 nM

Q: And the IC50 [3]?
A: > 10000 nM

Q: And the Activity (U2OS)?
A: 5.7

Q: And the IC50 [6]?
A: ≥ 10000 nM

Q: And the Activity (Cannabinoid receptor 1; filed as antagonist)?
A: 71.9%

Q: And the IC50 [7]?
A: 3100 nM

Q: And the IC50 [8]?
A: > 10000 nM

Q: And the EC50 (HT-22 [9])?
A: 7200 nM

Q: And the IC50 [10]?
A: 5000 nM

Q: And the IC50 [12]?
A: > 10000 nM

Q: For `COc1ccc(/C=C2\N=C(Nc3ccccc3)NC2=O)cc1`, which IC50 at 24 h [1] is on record?
A: > 20000 nM

Q: What about the IC50 [3] of the same compound?
A: > 10000 nM

Q: What about the Activity (U2OS) of the same compound?
A: 5.8

Q: What about the IC50 (Casein kinase 2) of the same compound?
A: 2100 nM

Q: And the IC50 [5]?
A: 550 nM

Q: And the IC50 [6]?
A: 340 nM

Q: And the Activity (Cannabinoid receptor 1; filed as antagonist)?
A: 92.2%

Q: And the IC50 [7]?
A: ≥ 10000 nM

Q: And the IC50 [8]?
A: 220 nM

Q: And the EC50 (HT-22 [9])?
A: 5300 nM

Q: What about the IC50 [10] of the same compound?
A: 280 nM

Q: What about the IC50 [11] of the same compound?
A: 2100 nM

Q: What about the IC50 [12] of the same compound?
A: 170 nM

Q: With `O=C1NC(Nc2ccccn2)=N/C1=C\c1ccc2c(c1)OCO2` as the compound, how does the EC50 at 24 h [1] read?
A: > 20000 nM

Q: And the IC50 [2]?
A: 1700 nM

Q: What about the IC50 [3] of the same compound?
A: 220 nM

Q: What about the Activity (U2OS) of the same compound?
A: 5.5

Q: What about the IC50 [4] of the same compound?
A: 510 nM

Q: And the IC50 (Casein kinase 2)?
A: 130 nM

Q: What about the IC50 [5] of the same compound?
A: 200 nM

Q: And the IC50 [6]?
A: 72 nM

Q: What about the Activity (Cannabinoid receptor 1) of the same compound?
A: -18.3%

Q: And the IC50 [7]?
A: 480 nM

Q: And the IC50 [8]?
A: 33 nM

Q: What about the EC50 (HT-22 [9]) of the same compound?
A: > 20000 nM

Q: And the IC50 [10]?
A: 53 nM

Q: What about the IC50 [11] of the same compound?
A: 310 nM

Q: What about the IC50 [12] of the same compound?
A: 44 nM

Q: With `Cc1ccc(NC2=N/C(=C\c3ccc4c(c3)OCO4)C(=O)N2)cc1` as the compound, how does the IC50 [2] read?
A: 7300 nM

Q: And the IC50 [3]?
A: 1000 nM

Q: And the Activity (U2OS)?
A: 8.4

Q: What about the IC50 (Casein kinase 2) of the same compound?
A: 1700 nM

Q: And the IC50 [5]?
A: 53 nM

Q: And the deltaCT (HT-22 [13])?
A: 2.29

Q: What about the IC50 [6] of the same compound?
A: 53 nM

Q: What about the Activity (Cannabinoid receptor 1; filed as antagonist) of the same compound?
A: 90.8%

Q: What about the IC50 [7] of the same compound?
A: 3500 nM

Q: What about the Activity [14] of the same compound?
A: Non-Toxic

Q: What about the IC50 [8] of the same compound?
A: 34 nM

Q: And the EC50 (HT-22 [9])?
A: 3200 nM

Q: And the IC50 [10]?
A: 56 nM

Q: And the IC50 [11]?
A: 320 nM

Q: What about the IC50 [12] of the same compound?
A: 18 nM

Q: With `CN1CCN(c2ccc(NC3=N/C(=C\c4ccc5c(c4)OCO5)C(=O)N3)cc2)CC1` as the compound, how does the IC50 [2] read?
A: 120 nM

Q: What about the IC50 [3] of the same compound?
A: 35 nM

Q: And the Activity (U2OS)?
A: 24.9

Q: What about the IC50 [4] of the same compound?
A: 800 nM

Q: And the IC50 (Casein kinase 2)?
A: 1200 nM

Q: And the deltaCT (HT-22 [13])?
A: 7.48

Q: What about the IC50 [6] of the same compound?
A: 23 nM

Q: And the Activity (Cannabinoid receptor 1)?
A: -14.5%

Q: And the IC50 [7]?
A: 1100 nM

Q: What about the Activity [14] of the same compound?
A: Non-Toxic

Q: And the IC50 [8]?
A: 50 nM

Q: What about the EC50 (HT-22 [9]) of the same compound?
A: > 20000 nM

Q: And the IC50 [10]?
A: 16 nM

Q: What about the IC50 [11] of the same compound?
A: 25 nM

Q: And the IC50 [12]?
A: 12 nM
